“Also recorded” adds a separate entry of the source.
How the values were obtained:
[1] = test system: mouse ES cells (Pdx1/GFP); experiment: Differentiation of mouse ES cells into insulin positive cells on nano fiber plate, immunostaining and quantitative image analysis; format: cell-based; conditions: for effect on differentiation into insulin-expressing cells: compound added d11-d17, insulin staining d17 (FIG. 4, 5, 7, 8, 10)
Description: Two ES cell lines, one expressing green fluorescent protein (GFP) under the control of insulin 1 promoter, designed ING (Higuchi Y., Shiraki N., Yamane K, Qin Z., Mochitate K., Araki K., Senokuchi K., Yamagata K., Hara M., Kume K., and Kume S., Synthesized basement membranes direct the differentiation of mouse embryonic stem cells into pancreatic lineages. J. Cell Science, 123, 2733-2742, 2010), and the other one expressing GFP under the control of Pdx1 promoter, designated SK7 (Shiraki N, Yoshida T, Araki K, et al. Guided differentiation of embryonic stem cells into Pdx1-expressing regional-specific definitive endoderm. Stem Cells. 2008; 26:874-885), were used. Both cell lines were maintained on mouse embryonic fibroblast (MEF) feeders in Glasgow minimum essential medium (Invitrogen) containing 1000 units/ml leukemia inhibitory factor (LIF; Chemicon), 15% Knocked-out Serum Replacement (KSR; Gibco), 1% fetal bovine serum (FBS; Hyclone), 100 μM nonessential amino acids (NEAA; Invitrogen), 2 mM L-glutamine (L-Gln; Invitrogen), 1 mM sodium pyruvate (Invitrogen), 50 units/ml penicillin and 50 μg/ml streptomycin (PS; Invitrogen) and 100 μM β-mercaptoethanol (β-ME; Sigma), as ES maintenance medium.
For the differentiation studies, ES cells were plated at 5,000 cells per well in Corning 96 well plate with Ultra-Web Synthetic Polyamine Surface (#3873XX1, Corning Coster, Cambridge, Miss.), and cultured. The cells were cultured in Dulbecco's Modified Eagle Medium (DMEM: Invitrogen, Glasgow, UK) containing 4500 mg/L glucose, supplemented with NEAA, L-Gln, PS, β-ME, 10 μg/ml insulin (Sigma-Aldrich), 5.5 μg/ml transferrin (Sigma-Aldrich), 6.7 pg/ml selenium (Sigma-Aldrich), and 0.25% Albmax (Invitrogen), 10 ng/mL recombinant human activin-A (R&D Systems, Minneapolis, Minn.), 5 ng/mL; recombinant human bFGF for 7 days (d1-d7) (I of FIG. 1). And then, the medium was changed to RPMI 1640 medium (Invitrogen) containing 2000 mg/L glucose (Sigma, St Louis, Mo.), 1 μM Retinoic acid (Sigma-Aldrich), 50 ng/ml Human Recombinant Fibroblast Growth Factor-10 (Peprotech, Rocky Hill, N.J.), B27 SUPPLEMENT (Invitrogen) and 0.25 μM 3-Keto-N-(aminoethyl-aminocaproyl-dihydrocinnamoyl) cyclopamine Shh Signaling Antagonist II (Calbiochem, San Diego, Calif.) on d7 to d11 (II of FIG. 1). Finally, the medium was switched to DMEM containing 1000 mg/L glucose supplemented with NEAA, L-Gln, PS, β-ME, 10 μg/ml insulin (Sigma-Aldrich), 5.5 μg/ml transferrin (Sigma-Aldrich), 6.7 pg/ml selenium (Sigma-Aldrich), 0.25% Albmax (Invitrogen) and 10 mM nicotinamide (Sigma-Aldrich) on d11 to d17 (III of FIG. 1). Media were replaced every 2 days with fresh medium and growth factors until d17.
All tested small chemical compounds were solved in dimethyl sulfoxide (DMSO) at given concentration. Compounds were added on d11, d13 and d15 in a medium. Final concentration of DMSO was adjusted at 1.0% in all experiments for compounds.
After 17 days cell culture, cultured ES cells were fixed in 4% paraformaldehyde in PBS for 30 min at room temperature, and rinsed several times with PBS. Then, cells were incubated in the added diluted primary antibody in 20% Blocking One (Nacalai tesque, Tokyo, Japan) in PEST (0.1% Tween-20 in PBS) in a humidified chamber for overnight at 4° C. After washing the cells in PBST, cells were incubated with the secondary antibody in 20% Blocking One for 2 hr at room temperature in dark. After washing off the secondary antibody in PBST, cells were counterstained with […] (DAPI) (Roche Diagnostics). The following antibodies were used as First antibodies: Rabbit anti-GFP (MBL International Corp., Woburn, Mass.), Mouse anti-Insulin (Sigma). The following antibodies were used as Secondary antibodies: Alexa 568-conjugated, Alexa 488-conjugated antibodies (Invitrogen) Cells were counterstained with DAPI (Roche Diagnotics, Basel, Switzerland).

Drd2KD cells = experiment: Differentiation into insulin-producing cells in dopamine D2 receptor knock-down cell line; format: cell-based, mouse; conditions: 0.63 μM reserpine, Drd2KD cells (FIG. 9B)
Experimental: In the Vmat2-knockdown and Drd2-knockdown assays, Expression Arrest non-silencing control shRNA (Open Biosystems, #RHS4080), Vmat2 hRNA (Open Biosystems, #RMM3981-97058457 and #RMM3981-97058458) or Drd2 hRNA (Open Biosystems, #RMM3981-9594258) lentiviral vectors were used. For virus preparation, HEK293-FT cells (Invitrogen) were seeded on a plate medium the day before transfection. After overnight culture, the cells were transfected with lentiviral vectors and ViraPower™ Lentiviral Packaging Mix (Invitrogen) using FuGENE6 Transfection Reagent (Roche) according to the manufacturer's protocol. Cells were incubated in the ES maintenance medium for 24 hours, and viral supernatants were collected. Then, SK7 cells were infected with the viral supernatants. After incubation for 24 hours, the virus-containing medium was replaced with fresh ES maintenance medium. Further 24 hours later, the infected cells were selected using […] puromycin. The surviving cells were cloned as a knockdown-cell lines.
To confirm that a dopamine signal suppresses the differentiation into insulin-expressing cells through activation of its receptor, a dopamine D2 receptor knock-down cell line, Drd2KD was established (FIG. 9A).

SMILES: COC(=O)[C@H]1[C@H]2C[C@@H]3c4[nH]c5cc(OC)ccc5c4CCN3C[C@H]2C[C@@H](OC(=O)c2cc(OC)c(OC)c(OC)c2)[C@@H]1OC [Reserpine, reserpine]
- hit confirmed by dose-responsiveness ([1]; 0.08 to 10 μM, SK7 ES cells): positive
- effect on differentiation into insulin-expressing cells [1]: enhanced insulin-positive staining; also recorded: increased insulin-producing cells
- effect on differentiation into insulin-expressing cells ([1]; listed as reserpine): concentration-dependent effect was observed
- concentration of maximum effect on insulin positive cells ([1]; concentration-dependent test at 0 to 10 μM (FIG. 4)): 0.63 µM
- effect on Pdx1 positive pancreatic precursor cells ([1]; reserpine 0.63 μM, Pargyline 1 μM (FIG. 6, 7)): did not change the number of pancreatic precursor cells
- promotion of differentiation into insulin-producing cells (Drd2KD cells): did not promote differentiation

From US9617517B2, “Small chemical compound which promotes induction of differentiation of stem cells into insulin-producing cells and method for inducing differentiation of stem cells into insulin-producing cells using said small chemical compound” (NATIONAL UNIVERSITY CORPORATION KUMAMOTO UNIVERSITY, priority 2011, dated 2017)
